Measurements taken from the supplement of paper PMC11061612.

Key:
Assay in all cases: combination Emax (second highest fraction inhibited in the dose matrix, 72 h); higher = more inhibition; extreme values may be limits of the assay
CAL-78 (Chondrosarcoma) = tested on: CAL-78 (Chondrosarcoma)
Summary of the method: (§1)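 Bliss excess equals the observed combination effect minus the expected value EA + EB − EA·EB, where EA and EB are the effects of each agent alone. Combination Emax is the second-highest inhibition within the matrix. Inhibition was scaled from CellTiter-Glo 2.0 luminescence, with 0 set by vehicle wells and 1 by blank wells, after 72 hours of two-drug dosing of cells plated in 1536-well plates.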

[1] = tested on: COR-L23 (Non-Small Cell Lung Carcinoma)
Summary of the method: as §1

[2] = tested on: COR-L95 (Small Cell Lung Carcinoma)
Summary of the method: as §1

[3] = tested on: CTV-1 (T-Lymphoblastic Leukemia)
Summary of the method: as §1

[4] = tested on: DB (B-Cell Non-Hodgkin's Lymphoma)
Summary of the method: as §1

[5] = tested on: DOV13 (Ovarian Carcinoma)
Summary of the method: as §1

DSH1 (Bladder Carcinoma) = tested on: DSH1 (Bladder Carcinoma)
Summary of the method: as §1

[6] = tested on: EM-2 (Chronic Myelogenous Leukemia)
Summary of the method: as §1

[7] = tested on: HCC2157 (Breast Carcinoma)
Summary of the method: as §1

J82 (Bladder Carcinoma) = tested on: J82 (Bladder Carcinoma)
Summary of the method: as §1

[8] = tested on: KARPAS-1106P (B-Cell Non-Hodgkin's Lymphoma)
Summary of the method: as §1

[9] = tested on: LS-513 (Colorectal Carcinoma)
Summary of the method: as §1

[10] = tested on: MDA-MB-157 (Breast Carcinoma)
Summary of the method: as §1

[11] = tested on: MFH-ino (Other Solid Carcinomas)
Summary of the method: as §1

NCI-H2595 (Mesothelioma) = tested on: NCI-H2595 (Mesothelioma)
Summary of the method: as §1

[12] = tested on: OCI-AML2 (Acute Myeloid Leukemia)
Summary of the method: as §1

SK-N-FI (Neuroblastoma) = tested on: SK-N-FI (Neuroblastoma)
Summary of the method: as §1

[13] = tested on: SW1990 (Pancreatic Carcinoma)
Summary of the method: as §1

[14] = tested on: TE-5 (Esophageal Squamous Cell Carcinoma)
Summary of the method: as §1

[15] = tested on: TGBC24TKB (Biliary Tract Carcinoma)
Summary of the method: as §1

| Compound | combination Emax (CAL-78 (Chondrosarcoma)) | combination Emax [1] | combination Emax [2] | combination Emax [3] | combination Emax [4] | combination Emax [5] | combination Emax (DSH1 (Bladder Carcinoma)) | combination Emax [6] | combination Emax [7] | combination Emax (J82 (Bladder Carcinoma)) | combination Emax [8] | combination Emax [9] | combination Emax [10] | combination Emax [11] | combination Emax (NCI-H2595 (Mesothelioma)) | combination Emax [12] | combination Emax (SK-N-FI (Neuroblastoma)) | combination Emax [13] | combination Emax [14] | combination Emax [15] |
| --- | --- | --- | --- | --- | --- | --- | --- | --- | --- | --- | --- | --- | --- | --- | --- | --- | --- | --- | --- | --- |
| CS(=O)(=O)CCNCc1ccc(-c2ccc3ncnc(Nc4ccc(OCc5cccc(F)c5)c(Cl)c4)c3c2)o1 [Lapatinib] + C[C@@H](Oc1cc(-c2cnn(C3CCNCC3)c2)cnc1N)c1c(Cl)ccc(F)c1Cl [Crizotinib] (first compound max 10 µM, 7x7, partner max 10 µM) | 0.897 | 0.949 | 0.812 | 1 | 0.953 | 0.886 | 1 | 1 | 1 | 0.662 | 0.938 | 0.966 | 0.493 | 0.25 | 0.458 | 0.915 | 0.601 | 0.331 | 0.502 | 0.952 |
| COc1cc2ncnc(Nc3ccc(F)c(Cl)c3)c2cc1OCCCN1CCOCC1 [Gefitinib] + CC(C)n1c(=O)n(C)c2cnc3cc(F)c(-c4ccc(OCCCN5CCCCC5)nc4)cc3c21 [AZD1390] (first compound max 10 µM, 7x7, partner max 0.3 µM) | 0.194 | 0.0639 | 0.261 | 0.785 | 0.328 | 0.168 | 0.858 | 0.174 | 0.723 | 0.139 | 0.267 | 0.354 | 0.125 | 0 | 0.129 | 0.083 | 0.175 | 0.213 | 0.15 | 0.348 |
| Cc1c2c(nn1C)CSCc1cc(n(C)n1)CSc1cc(c3ccccc3c1)OCCCc1c(C(=O)O)n(C)c3c-2c(Cl)ccc13 [AZD5991] + C1CN(CCC1(C(=O)N[C@@H](CCO)C2=CC=C(C=C2)Cl)N)C3=NC=NC4=C3C=CN4 [Capivasertib] (first compound max 1 µM, 7x7, partner max 3 µM) | 0.868 | 0.182 | 0.409 | 0.337 | 0.987 | 0.272 | 0.927 | 0.409 | 0.992 | 0.201 | 0.901 | 0.344 | 0.714 | 0.248 | 0.311 | 1 | 0.514 | 0.121 | 0.329 | 0.175 |
| CCN(CCO)CCCOc1ccc2c(Nc3cc(CC(=O)Nc4cccc(F)c4)[nH]n3)ncnc2c1 [AZD2811] + C=CCn1c(=O)c2cnc(Nc3ccc(N4CCN(C)CC4)cc3)nc2n1-c1cccc(C(C)(C)O)n1 [AZD1775] (first compound max 1 µM, partner max 1 µM) | 0.51 | 0.349 | 0.655 | 0.969 | 0.867 | 0.823 | 0.324 | 0.96 | 0.854 | 0.315 | 0.842 | 0.703 | 0.729 | 0.183 | 0.0802 | 0.991 | 0.666 | 0.458 | 0.313 | 0.651 |
| CCN(CCO)CCCOc1ccc2c(Nc3cc(CC(=O)Nc4cccc(F)c4)[nH]n3)ncnc2c1 [AZD2811] + C[C@@H]1COCCN1C2=NC(=NC(=C2)C3(CC3)[S@](=N)(=O)C)C4=C5C=CNC5=NC=C4 [AZD6738] (first compound max 1 µM, 7x7, partner max 10 µM) | 0.534 | 0.511 | 0.533 | 0.84 | 0.726 | 0.873 | 0.673 | 0.968 | 0.918 | 0.184 | 0.711 | 0.746 | 0.894 | 0.529 | 0.21 | 0.984 | 0.687 | 0.513 | 0.476 | 0.746 |
| Cc1cc2ncnn2cc1Nc1ncc2c(n1)n(C1CCOCC1)c(=O)n2C [AZD7648] + O=C(c1cc(Cc2n[nH]c(=O)c3ccccc23)ccc1F)N1CCN(C(=O)C2CC2)CC1 [Olaparib] (first compound max 10 µM, 7x7, partner max 10 µM) | 0.252 | 0.212 | 0.363 | 0.279 | 0.451 | 0.386 | 0.272 | 0.351 | 0.413 | 0.351 | 0.41 | 0.19 | 0.0869 | 0.262 | 0.116 | 0.723 | 0.213 | 0.11 | 0.162 | 0.276 |
